The record followed here is patent publication US8222247B2, “Modulators of glucocorticoid receptor, AP-1, and/or NF-kappabeta activity and use thereof” (Bristol-Myers Squibb Company, priority 2006, dated 2012).

Molecules are shown by their SMILES.

The assay addresses T1, human glucocorticoid receptor (Homo sapiens, UniProt P04150).
T1 construct: purified human recombinant full-length glucocorticoid receptor (2 nM); purchased Invitrogen Part #2893
T1 sequence (P04150 1-777): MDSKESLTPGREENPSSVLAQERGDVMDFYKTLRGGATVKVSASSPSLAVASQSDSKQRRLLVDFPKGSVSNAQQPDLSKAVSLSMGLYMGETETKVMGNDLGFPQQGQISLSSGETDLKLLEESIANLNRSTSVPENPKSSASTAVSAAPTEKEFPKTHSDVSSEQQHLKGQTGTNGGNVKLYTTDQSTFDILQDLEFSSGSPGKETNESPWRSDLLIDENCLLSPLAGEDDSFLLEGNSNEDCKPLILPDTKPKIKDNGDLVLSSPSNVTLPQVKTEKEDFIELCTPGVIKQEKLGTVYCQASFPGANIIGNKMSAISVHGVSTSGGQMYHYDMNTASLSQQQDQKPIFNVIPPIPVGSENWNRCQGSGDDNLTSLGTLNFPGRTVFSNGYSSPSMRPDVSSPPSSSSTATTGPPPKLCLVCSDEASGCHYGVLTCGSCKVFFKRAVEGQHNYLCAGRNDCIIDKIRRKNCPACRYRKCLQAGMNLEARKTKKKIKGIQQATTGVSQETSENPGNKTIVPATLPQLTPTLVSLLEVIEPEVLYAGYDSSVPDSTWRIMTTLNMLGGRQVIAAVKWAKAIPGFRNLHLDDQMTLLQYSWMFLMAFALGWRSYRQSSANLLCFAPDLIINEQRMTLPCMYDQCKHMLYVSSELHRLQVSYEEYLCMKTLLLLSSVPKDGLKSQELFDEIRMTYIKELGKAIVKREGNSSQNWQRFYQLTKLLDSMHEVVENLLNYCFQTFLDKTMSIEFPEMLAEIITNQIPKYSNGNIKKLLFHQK
The assay can be described thus: Glucocorticoid Receptor Binding Assay (I), fluorescence polarization competitor kit. Particulars: purified human recombinant full-length GR, Fluormone GS Red. The protocol: Glucocorticoid Receptor Binding Assay (I)^a
In order to assess the affinity of test compounds for the human glucocorticoid receptor, a commercially available kit was used (Glucocorticoid Receptor Competitor Assay Kit, Invitrogen Part #2893). Briefly, purified human recombinant full-length glucocorticoid receptor (2 nM) was mixed with fluorescently labeled glucocorticoid (1 nM Fluormone GS Red) in the presence or absence of test compound. After two hour incubation at room temperature in the dark, the fluorescence polarization (FP) of the samples was measured. The FP of a mixture of receptor, fluorescent probe (i.e. Fluormone GS Red) and 5 μM dexamethasone represented background fluorescence or 100% inhibition, whereas, the FP of the mixture without dexamethasone (but in the presence of vehicle) was taken to be 100% binding. The percentage inhibition of test compounds were then compared to the sample with 5 μM dexamethasone and expressed as % relative binding activity with dexamethasone being 100% and no inhibition is 0%. Test compounds were analyzed in the concentration range from 8.5E-05 μM to 5 μM.
Background: Fluorescence polarisation rises when a labelled molecule tumbles more slowly, as on binding a larger partner.

With `CNC(=O)c1ccc(-c2ccc([C@H](c3cccc(F)c3)C(C)(C)C(=O)Nc3nncs3)s2)cc1` [Example 75, 4-(5-((1R)-1-(3-fluorophenyl)-2,2-dimethyl-3-oxo-3-(1,3,4-thiadiazol-2-ylamino)propyl)-2-thienyl)-N-methylbenzamide], the Ki was found to be 1.52 nM.

Consider `CC(C)(C)NC(=O)c1ccc(-c2ccc([C@H](c3cccc(F)c3)C(C)(C)C(=O)Nc3nncs3)s2)cc1` [Example 76, N-tert-butyl-4-(5-((1R)-1-(3-fluorophenyl)-2,2-dimethyl-3-oxo-3-(1,3,4-thiadiazol-2-ylamino)propyl)-2-thienyl)benzamide], for which the Ki turned out to be 27 nM.

For `CC(C)(C(=O)Nc1nncs1)[C@@H](c1cccc(F)c1)c1ccc(-c2ccc(C(=O)NC3CC3)cc2)s1` [Example 77, N-cyclopropyl-4-(5-((1R)-1-(3-fluorophenyl)-2,2-dimethyl-3-oxo-3-(1,3,4-thiadiazol-2-ylamino)propyl)-2-thienyl)benzamide], the Ki stood at 4.19 nM.

For the compound `CC(C)(C(=O)Nc1nncs1)[C@@H](c1cccc(F)c1)c1ccc(-c2ccc(C(=O)O)c(F)c2)s1` [Example 78, 2-fluoro-4-(5-((1R)-1-(3-fluorophenyl)-2,2-dimethyl-3-oxo-3-(1,3,4-thiadiazol-2-ylamino)propyl)-2-thienyl)benzoic acid], the Ki was determined as 24.5 nM.

As to `CC(C)(C(=O)Nc1nncs1)[C@@H](c1cccc(F)c1)c1ccc(-c2ccc(C(=O)N3CCC3)cc2)s1` [Example 81, (3R)-3-(5-(4-(1-azetidinylcarbonyl)phenyl)-2-thienyl)-3-(3-fluorophenyl)-2,2-dimethyl-N-1,3,4-thiadiazol-2-ylpropanamide], the Ki was 4.32 nM.

Consider `CC(C)(C(=O)Nc1nncs1)[C@@H](c1cccc(F)c1)c1ccc(-c2ccc(C(=O)N3CCC3)c(F)c2)s1` [Example 82, (3R)-3-(5-(4-(1-azetidinylcarbonyl)-3-fluorophenyl)-2-thienyl)-3-(3-fluorophenyl)-2,2-dimethyl-N-1,3,4-thiadiazol-2-ylpropanamide], for which the Ki was determined as 2.66 nM.

As for `CN(C)C(=O)c1ccc(-c2ccc(C(c3cc(F)cc(F)c3)C(C)(C)C(=O)Nc3nncs3)s2)cc1Cl` (stereo not shown) [Example 91, 2-chloro-4-(5-(1-(3,5-difluorophenyl)-2,2-dimethyl-3-oxo-3-(1,3,4-thiadiazol-2-ylamino)propyl)-2-thienyl)-N,N-dimethylbenzamide], the inhibition constant (Ki) was 4.59 nM.

Take `CCN(C)C(=O)c1ccc(-c2ccc(C(c3cc(F)cc(F)c3)C(C)(C)C(=O)Nc3nncs3)s2)cc1` (stereo not shown) [Example 92, 4-(5-(1-(3,5-difluorophenyl)-2,2-dimethyl-3-oxo-3-(1,3,4-thiadiazol-2-ylamino)propyl)-2-thienyl)-N-ethyl-N-methylbenzamide]: the Ki stood at 1.14 nM.

Take `C[C@H](C(=O)Nc1nncs1)[C@@H](c1cccc(F)c1)c1ccc(Br)s1` [Example 94, (2S,3S)-3-(5-bromo-2-thienyl)-3-(3-fluorophenyl)-2-methyl-N-1,3,4-thiadiazol-2-ylpropanamide]: the inhibitory constant (Ki) was 4.11 nM.

`C[C@H](C(=O)Nc1nncs1)[C@H](c1cccc(F)c1)c1ccc(Br)s1` [Example 95, (2S,3R)-3-(5-bromo-2-thienyl)-3-(3-fluorophenyl)-2-methyl-N-1,3,4-thiadiazol-2-ylpropanamide]: the Ki is 0.76 nM.

As to `C[C@@H](C(=O)Nc1nncs1)[C@H](c1cccc(F)c1)c1ccc(Br)s1` [Example 97, (2R,3R)-3-(5-bromo-2-thienyl)-3-(3-fluorophenyl)-2-methyl-N-1,3,4-thiadiazol-2-ylpropanamide], the Ki was 1.96 nM.

For the compound `CCN(C)C(=O)c1ccc(-c2ccc([C@H](c3cccc(F)c3)[C@H](C)C(=O)Nc3nncs3)s2)cc1` [Example 106, N-ethyl-4-(5-((1S,2S)-1-(3-fluorophenyl)-2-methyl-3-oxo-3-(1,3,4-thiadiazol-2-ylamino)propyl)-2-thienyl)-N-methylbenzamide], the Ki amounted to 2.44 nM.

As for `C[C@H](C(=O)Nc1nncs1)[C@@H](c1cccc(F)c1)c1ccc(-c2ccc(C(=O)N3CCOCC3)cc2)s1` [Example 108, (2S,3S)-3-(3-fluorophenyl)-2-methyl-3-(5-(4-(4-morpholinylcarbonyl)phenyl)-2-thienyl)-N-1,3,4-thiadiazol-2-ylpropanamide], the inhibition constant Ki is 5.39 nM.

Regarding `C[C@@H](C(=O)Nc1nncs1)[C@H](c1cccc(F)c1)c1ccc(-c2ccc(C(=O)N3CCC3)c(F)c2)s1` [Example 122, (2R,3R)-3-(5-(4-(1-azetidinylcarbonyl)-3-fluorophenyl)-2-thienyl)-3-(3-fluorophenyl)-2-methyl-N-1,3,4-thiadiazol-2-ylpropanamide], the Ki is 1.91 nM.

For `C[C@H](C(=O)Nc1nncs1)[C@@H](c1cccc(F)c1)c1ccc(-c2ccc(C(=O)N(C)C)c(Cl)c2)s1` [Example 123, 2-chloro-4-(5-((1S,2S)-1-(3-fluorophenyl)-2-methyl-3-oxo-3-(1,3,4-thiadiazol-2-ylamino)propyl)-2-thienyl)-N,N-dimethylbenzamide], the inhibition constant (Ki) is 7.16 nM.

Turning to `C[C@H](C(=O)Nc1nncs1)[C@@H](c1cccc(F)c1)c1ccc(-c2ccc(C(=O)N3CCOCC3)c(Cl)c2)s1` [Example 124, (2S,3S)-3-(5-(3-chloro-4-(4-morpholinylcarbonyl)phenyl)-2-thienyl)-3-(3-fluorophenyl)-2-methyl-N-1,3,4-thiadiazol-2-ylpropanamide], the Ki was 7.27 nM.

Regarding `C[C@H](C(=O)Nc1nncs1)[C@@H](c1cccc(F)c1)c1ccc(-c2ccc(C(=O)N(C)C)cc2)s1` [Example 125, 4-(5-((1S,2S)-1-(3-fluorophenyl)-2-methyl-3-oxo-3-(1,3,4-thiadiazol-2-ylamino)propyl)-2-thienyl)-N,N-dimethylbenzamide], the Ki was 5.71 nM.

Take `C[C@H](C(=O)Nc1nncs1)[C@H](c1cccc(F)c1)c1ccc(-c2ccc(C(=O)N(C)C)c(Cl)c2)s1` [Example 126, 2-chloro-4-(5-((1R,2S)-1-(3-fluorophenyl)-2-methyl-3-oxo-3-(1,3,4-thiadiazol-2-ylamino)propyl)-2-thienyl)-N,N-dimethylbenzamide]: the inhibition constant Ki turned out to be 220 nM.

On to `C[C@H](C(=O)Nc1nncs1)[C@H](c1cccc(F)c1)c1ccc(-c2ccc(C(=O)N3CCOCC3)c(Cl)c2)s1` [Example 127, (2S,3R)-3-(5-(3-chloro-4-(4-morpholinylcarbonyl)phenyl)-2-thienyl)-3-(3-fluorophenyl)-2-methyl-N-1,3,4-thiadiazol-2-ylpropanamide], for which the Ki worked out at 148 nM.

Turning to `C[C@H](C(=O)Nc1nncs1)[C@H](c1cccc(F)c1)c1ccc(-c2ccc(C(=O)N(C)C)cc2)s1` [Example 128, 4-(5-((1R,2S)-1-(3-fluorophenyl)-2-methyl-3-oxo-3-(1,3,4-thiadiazol-2-ylamino)propyl)-2-thienyl)-N,N-dimethylbenzamide], the Ki was 277 nM.

As to `C[C@@H](C(=O)Nc1nncs1)[C@@H](c1cccc(F)c1)c1ccc(-c2ccc(C(=O)N(C)C)c(Cl)c2)s1` [Example 129, 2-chloro-4-(5-((1S,2R)-1-(3-fluorophenyl)-2-methyl-3-oxo-3-(1,3,4-thiadiazol-2-ylamino)propyl)-2-thienyl)-N,N-dimethylbenzamide], the inhibition constant (Ki) amounted to 158 nM.

`C[C@@H](C(=O)Nc1nncs1)[C@@H](c1cccc(F)c1)c1ccc(-c2ccc(C(=O)N3CCOCC3)c(Cl)c2)s1` [Example 130, (2R,3S)-3-(5-(3-chloro-4-(4-morpholinylcarbonyl)phenyl)-2-thienyl)-3-(3-fluorophenyl)-2-methyl-N-1,3,4-thiadiazol-2-ylpropanamide]: the Ki was determined as 160 nM.

For the compound `C[C@@H](C(=O)Nc1nncs1)[C@@H](c1cccc(F)c1)c1ccc(-c2ccc(C(=O)N(C)C)cc2)s1` [Example 131, 4-(5-((1S,2R)-1-(3-fluorophenyl)-2-methyl-3-oxo-3-(1,3,4-thiadiazol-2-ylamino)propyl)-2-thienyl)-N,N-dimethylbenzamide], the Ki was 236 nM.

Take `C[C@H](C(=O)Nc1nncs1)[C@@H](c1ccccc1)c1ccc(Br)s1` [Example 133, (2S,3S)-3-(5-bromo-2-thienyl)-2-methyl-3-phenyl-N-1,3,4-thiadiazol-2-ylpropanamide]: the Ki was found to be 4.85 nM.

For `C[C@@H](C(=O)Nc1nncs1)[C@H](c1ccccc1)c1ccc(Br)s1` [Example 136, (2R,3R)-3-(5-bromo-2-thienyl)-2-methyl-3-phenyl-N-1,3,4-thiadiazol-2-ylpropanamide], the Ki was determined as 1.98 nM.

For orientation: Ki means a dissociation constant, usually derived from enzyme kinetics or from competition with a known ligand.
